From US20070275984A1, “Novel Thieno-Pyridine and Thieno-Pyrimidine Derivatives and Their Use as Positive Allosteric Modulators of Mglur2-Receptors” (JANSSEN PHARMACEUTICA N.V., priority 2004, published 2007)
Where “and” joins values, the source holds several entries; their conditions need not be identical. Equal values may be shown once.

Columns and labels:
native rat mGluR2 = target: T1, native rat mGluR2 (Rattus norvegicus, UniProt P31421); experiment: [35S]GTPγS binding assay using cortical rat brain membranes, potentiation of a selective mGluR2 agonist; type: biochemical; details: for Activity: left-ward shift of agonist mGluR2 concentration-response curve: rat cortical membranes, selective mGluR2 agonist such as LY379268, in the presence of 3 or 10 μM of positive allosteric modulator
T1 construct: from tissue; host or cells: cerebral cortex of Sprague-Dawley rats (membrane preparation)
Source text: The [^35S]GTPγS binding is a functional membrane-based assay used to study G-protein coupled receptor (GPCR) function. This method is using a binding assay to assess the initial step in receptor-mediated G protein activation in membranes prepared from cells expressing recombinant GPCR or using membranes from discrete area of the rat brain. In brief, the assay is measuring the activation of G proteins by catalyzing the exchange of guanosine 5′-diphosphate (GDP) by guanosine 5′-triphosphate (GTP) at the α subunit. The GTP-bounded G proteins dissociate into two subunits, Gα-GTP and Gβγ, which in turn regulate intracellular enzymes and ion channels. GTP is rapidly hydrolysed by the Gα-subunit (GTPases) and the G protein is deactivated and ready for new GTP exchange cycle (Harper (1998) Curr Protoc Pharmacol 2.6.1-10, John Wiley & Sons, Inc.). [^35S]GTPγS, a non-hydrolyzed analogue of GTP, is used for this purpose.
This method is widely used to study receptor activation of G protein in membranes prepared from rat brain tissue, including mGluR2 receptors (Schaffhauser et al 2003, Pinkerton et al, 2004). mGluR2 receptors are expressed in the rat brain cortex (Mutel et al (1998) J. Neurochem. 71:2558-64; Schaffhauser et al (1998) Mol. Pharmacol. 53:228-33) and are coupled to Gαi-protein, a preferential coupling for this method.
[^35S]GTPγS binding assay using cortical rat brain membranes preparation was used and adapted from Schaffhauser et al ((2003) Mol. Pharmacol. 4:798-810) for the detection of the positive allosteric modulator properties of the compounds of this invention on native rat mGluR2. In order to eliminate the possible interference with group III Gαi-protein coupled mGluRs (mGluR4, mGluR7, mGluR8; mGluR6 is not expressed in the cortex (Laurie et al (1997) Neuropharmacol. 36:145-52)), the potentiation of the response to a selective mGluR2 agonist, such as DCG-IV (Cartmell et al. (1998) Br. J. Pharmacol. 123(3):497-504) or LY379268 (Monn et al. (1999) J. Med. Chem 42:1027-40), by compounds described in the present invention was performed.
Membrane preparation. Cortices were dissected out from brains of 200-300 g Sprague-Dawley rats (Charles River Laboratories, L'Arbresle, France). Tissues were homogenized in 6 volumes (vol/wt) of 10% sucrose at 4° C. using a glass-teflon homogenizer. The homogenate was centrifuged at 1250 g for 10 min, and the supernatant was centrifuged at 40,000 g for 20 min (4° C.). The pellet was resuspended in 25 ml water using a Polytron disrupter (Kinematica AG, Luzern, Switzerland) and centrifuged for 10 min at 3000 g. (4° C.). The supernatant was centrifuged at 40,000 g for 20 min (4° C.). The supernatant was discarded and the pellet washed twice by resuspension in 10 volumes 5 mM HEPES-KOH, pH 7.4. The homogenate was frozen and thawed twice and centrifuged at 40,000 g for 20 min. The final pellet was resuspended in 5 mM HEPES-KOH, pH 7.4 and stored at −80° C. before its use. Protein concentration was determined by the Bradford method (Bio-Rad protein assay, Reinach, Switzerland) with bovine serum albumin as standard.
[^35S]GTPγS binding assay. Measurement of mGluR2 positive allosteric modulators properties in rat cortical membranes was performed as follows: rat cortical membrane (1.5 μg) were incubated in 96-well microplates for 15 min at 30° C. in assay buffer (50 mM HEPES pH 7.4, 100 mM NaCl, 5 mM MgCl2, 10 μM GDP, 10 μg/ml saponin, EGTA 0.2 mM) with increasing concentrations of positive allosteric modulator (from 1 nM to 10 μM) and a minimal concentration of DCG-IV or LY379268, a selective mGluR2 agonist, that has been determined in previous experiments and that corresponds to the EC20, a concentration that gives 20% of the maximal response of the agonist, and is in accordance to published data (Pin et al. (1999) Eur. J. Pharmacol. 375:277-294). […]

T1 sequence (P31421 19-872): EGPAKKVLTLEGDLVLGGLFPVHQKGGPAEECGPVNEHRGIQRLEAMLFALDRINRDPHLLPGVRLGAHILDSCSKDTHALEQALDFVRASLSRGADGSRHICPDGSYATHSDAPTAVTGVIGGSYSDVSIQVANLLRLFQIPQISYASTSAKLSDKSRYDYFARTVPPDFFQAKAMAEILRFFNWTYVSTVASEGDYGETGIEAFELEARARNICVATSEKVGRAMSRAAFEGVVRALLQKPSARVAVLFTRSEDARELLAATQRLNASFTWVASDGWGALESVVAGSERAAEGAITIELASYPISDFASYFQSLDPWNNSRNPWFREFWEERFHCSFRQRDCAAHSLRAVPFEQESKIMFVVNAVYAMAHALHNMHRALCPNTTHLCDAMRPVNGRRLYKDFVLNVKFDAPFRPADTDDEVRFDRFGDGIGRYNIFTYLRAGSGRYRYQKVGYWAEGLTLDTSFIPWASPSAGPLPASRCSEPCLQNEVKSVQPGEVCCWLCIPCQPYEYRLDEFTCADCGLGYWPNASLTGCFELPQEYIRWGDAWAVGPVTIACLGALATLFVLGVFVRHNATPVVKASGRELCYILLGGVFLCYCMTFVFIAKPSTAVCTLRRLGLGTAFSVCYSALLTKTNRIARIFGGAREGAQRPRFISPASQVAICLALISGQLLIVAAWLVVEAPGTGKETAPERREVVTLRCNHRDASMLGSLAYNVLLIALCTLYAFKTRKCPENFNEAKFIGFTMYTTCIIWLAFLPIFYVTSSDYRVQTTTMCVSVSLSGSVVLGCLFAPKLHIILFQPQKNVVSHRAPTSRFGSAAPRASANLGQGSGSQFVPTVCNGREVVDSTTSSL

Row | SMILES | melting point | increase of the [GTPi^5S] binding induced by 50 nM of DCG-IV (native rat mGluR2; 10 μM compound together with mGluR2 agonist, compared to agonist alone, Figure B) | Activity: left-ward shift of agonist mGluR2 concentration-response curve (native rat mGluR2) | agonistic activity when tested in the absence of 50 nM DCG-IV (native rat mGluR2; 10 μM compound, compared to buffer value (0% of maximal response), Figure B)
1 | OCc1cc2c(NCCc3ccccc3)ncnc2s1 [Compound 58, (4-(phenethylamino)thieno[2,3-d]pyrimidin-6-yl)methanol] | 155 °C and 155 to 155.5 °C | – | ++ (left-ward shift of agonist mGluR2 concentration-response curve [2- to 3.5-fold]) | –
2 | Cc1nc(NCCc2ccc(OCc3nn[nH]n3)cc2)c2cc(C)sc2n1 [Compound 46, N-(4-((2H-tetrazol-5-yl)methoxy)phenethyl)-2,6-dimethylthieno[2,3-d]pyrimidin-4-amine] | 205 °C | – | +++ (left-ward shift of agonist mGluR2 concentration-response curve [>3.5-fold]) | –
3 | COc1ccc(CCNc2nc(C)nc3sc(Cc4ccccc4)cc23)cc1 [Compound 61, N-(4-methoxyphenethyl)-6-benzyl-2-methylthieno[2,3-d]pyrimidin-4-amine] | – | – | ++ (left-ward shift of agonist mGluR2 concentration-response curve [2- to 3.5-fold]) | –
4 | CC(=O)Nc1ccc(CCNc2nc(C)nc3sc(C)cc23)cc1 [Compound 43, N-(4-(2-(2,6-dimethylthieno[2,3-d]pyrimidin-4-ylamino)ethyl)-phenyl)acetamide] | 248 °C | – | ++ (left-ward shift of agonist mGluR2 concentration-response curve [2- to 3.5-fold]) | –
5 | Cc1nc(NCCc2ccc(N)cc2)c2cc(C)sc2n1 [Compound 42, N-(4-aminophenethyl)-2,6-dimethylthieno[2,3-d]pyrimidin-4-amine] | 127 °C | – | ++ (left-ward shift of agonist mGluR2 concentration-response curve [2- to 3.5-fold]) | –
6 | COc1ccc(CCNc2nc(C)nc3sc(C)cc23)cc1 [Compound 28, N-(4-methoxyphenethyl)-2,6-dimethylthieno[2,3-d]pyrimidin-4-amine] | 129 °C | significantly potentiated | – | no statistically significant agonistic activity
7 | CCc1cc2c(NCc3ccc(F)cc3)ncnc2s1 [Compound 66, N-(4-fluorobenzyl)-6-ethylthieno[2,3-d]pyrimidin-4-amine] | 104 °C | – | – | –
8 | COCCCNc1nc(C)nc2sc(C)cc12 [Compound 57, N-(3-methoxypropyl)-2,6-dimethylthieno[2,3-d]pyrimidin-4-amine] | 90 °C | – | – | –
9 | Cc1cc2c(NCCc3ccccc3)nc(N(C)C)nc2s1 [Compound 16, N2,N2,6-trimethyl-N4-phenethylthieno[2,3-d]pyrimidine-2,4-diamine] | 142 °C | – | – | –
10 | COc1ccc(CCCNc2nc(C)nc3sc(C)cc23)cc1 [Compound 56, N-(3-(4-methoxyphenyl)propyl)-2,6-dimethylthieno[2,3-d]pyrimidin-4-amine] | 120 °C | – | – | –
11 | Cc1nc(NCCc2ccc(F)cc2)c2cc(C)sc2n1 [Compound 41, N-(4-fluorophenethyl)-2,6-dimethylthieno[2,3-d]pyrimidin-4-amine] | 117.2 °C | – | – | –
12 | Cc1nc(NCCc2ccc(S(C)(=O)=O)cc2)c2cc(C)sc2n1 [Compound 44, N-(4-(methylsulfonyl)phenethyl)-2,6-dimethylthieno[2,3-d]pyrimidin-4-amine] | 176 to 179.5 °C | – | – | –
13 | Cc1nc(NCCc2cccc(C(F)(F)F)c2)c2cc(C)sc2n1 [Compound 21, N-(3-(trifluoromethyl)phenethyl)-2,6-dimethylthieno[2,3-d]pyrimidin-4-amine] | 98.2 °C | – | – | –
14 | COc1nc(NCCc2ccccc2)c2cc(C)sc2n1 [Compound 15, 2-methoxy-6-methyl-N-phenethylthieno[2,3-d]pyrimidin-4-amine] | 138.5 °C | – | +++ (left-ward shift of agonist mGluR2 concentration-response curve [>3.5-fold]) | –
15 | Cc1nc(NCCc2cccnc2)c2cc(C)sc2n1 [Compound 49, 2,6-dimethyl-N-(2-(pyridin-3-yl)ethyl)thieno[2,3-d]pyrimidin-4-amine] | 138 °C | – | + (left-ward shift of agonist mGluR2 concentration-response curve [<2-fold]) | –
16 | Cc1nc(NCCc2ccc(Cl)cc2)c2cc(C)sc2n1 [Compound 38, N-(4-chlorophenethyl)-2,6-dimethylthieno[2,3-d]pyrimidin-4-amine] | 129 °C | – | – | –
17 | COc1cccc(CNc2nc(C)nc3sc(C)cc23)c1 [Compound 6, N-(3-methoxybenzyl)-2,6-dimethylthieno[2,3-d]pyrimidin-4-amine] | 97 °C | – | – | –
18 | Cc1nc(NCc2ccccc2)c2cc(C)sc2n1 [Compound 5, N-benzyl-2,6-dimethylthieno[2,3-d]pyrimidin-4-amine] | 124.2 °C | – | + (left-ward shift of agonist mGluR2 concentration-response curve [<2-fold]) | –
19 | COc1ccc(CCNc2nc(C)nc3sc(C)cc23)cc1OC [Compound 33, N-(3,4-dimethoxyphenethyl)-2,6-dimethylthieno[2,3-d]pyrimidin-4-amine] | 85 °C | – | – | –

More lines, main results first:

Row | melting point | increase of the [GTPi^5S] binding induced by 50 nM of DCG-IV (native rat mGluR2; 10 μM compound together with mGluR2 agonist, compared to agonist alone, Figure B) | SMILES | Activity: left-ward shift of agonist mGluR2 concentration-response curve (native rat mGluR2) | agonistic activity when tested in the absence of 50 nM DCG-IV (native rat mGluR2; 10 μM compound, compared to buffer value (0% of maximal response), Figure B)
20 | 123.5 °C | – | CCCc1cc2c(NCCc3ccc(O)cc3)ncnc2s1 [Compound 82, 4-(2-(6-propylthieno[2,3-d]pyrimidin-4-ylamino)ethyl)phenol] | +++ (left-ward shift of agonist mGluR2 concentration-response curve [>3.5-fold]) | –
21 | 124.5 °C | – | CCc1cc2c(NCCCc3ccccc3)ncnc2s1 [Compound 75, 6-ethyl-N-(3-phenylpropyl)thieno[2,3-d]pyrimidin-4-amine] | ++ (left-ward shift of agonist mGluR2 concentration-response curve [2- to 3.5-fold]) | –
22 | 110.5 °C | – | CCCc1cc2c(NCCc3ccccc3)ncnc2s1 [Compound 79, N-phenethyl-6-propylthieno[2,3-d]pyrimidin-4-amine] | +++ (left-ward shift of agonist mGluR2 concentration-response curve [>3.5-fold]) | –
23 | 88 °C | – | CCc1cc2c(NCCc3ccccc3)ccnc2s1 [Compound 96, 2-ethyl-N-phenethylthieno[2,3-b]pyridin-4-amine] | +++ (left-ward shift of agonist mGluR2 concentration-response curve [>3.5-fold]) | –
24 | 133 °C | – | CCc1cc2c(NCCc3ccc(OC)cc3)ncnc2s1 [Compound 70, N-(4-methoxyphenethyl)-6-ethylthieno[2,3-d]pyrimidin-4-amine] | – | –
25 | 124 °C | – | CCc1cc2c(NCCc3ccc(OC)c(OC)c3)ncnc2s1 [Compound 72, N-(3,4-dimethoxyphenethyl)-6-ethylthieno[2,3-d]pyrimidin-4-amine] | – | –
26 | 181 °C | – | CCCc1cc2c(NCCc3ccc(OCc4nnn[nH]4)cc3)nc(OC)nc2s1 [Compound 88, N-(4-((1H-tetrazol-5-yl)methoxy)phenethyl)-2-methoxy-6-propylthieno[2,3-d]pyrimidin-4-amine] | – | –
27 | 162 °C | – | CCCc1cc2c(NCCc3ccccc3)nc(NC)nc2s1 [Compound 81, N2-methyl-N4-phenethyl-6-propylthieno[2,3-d]pyrimidine-2,4-diamine] | – | –
